Series [1] can be described thus: UV absorption of the compounds (absorption maximum and specific absorbance). It is filed as physicochemical. The note with it: for λmax: UV absorption maximum; for E^11: specific absorbance at λmax.
For series [2] the following is noted: used alone or in combination with UV-B filters; cited from earlier work.

As a reminder, the melting point is the temperature of the solid-liquid transition. In turn, `CCN(CC)c1ccc(C(=O)c2ccccc2)c(O)c1` [Example 2, 4-diethylamino-2-hydroxyphenyl phenyl ketone] came in with a melting point of 46 to 48 °C. For the same compound, in series [1], the λmax worked out at 359 nm and the “E^11” value stood at 1280.

Compound `O=C(O)c1ccccc1C(=O)c1ccc(N2CCCC2)cc1O` [Example 3] gave a melting point of 203 °C. Also, in series [1], the λmax is on record as 355 nm and the “E^11” value was determined as 1167.

For `CCN(CC)c1ccc(C(=O)c2ccccc2C(=O)OC)c(O)c1` [Example 1, Methyl 2-(4-diethylamino-2-hydroxybenzoyl)benzoate], in series [1], the λmax came to 354 nm and the “E^11” value is 1173.

The compound `COC(=O)c1ccccc1C(=O)c1ccc(N2CCCC2)cc1O` [Example 4] returned a melting point of 164 °C. For the same compound, in series [1], the λmax turned out to be 355 nm and the “E^11” value is recorded as 1179.

As to `COc1ccc(C(=O)CC(=O)c2ccc(C(C)(C)C)cc2)cc1` [PARSOL 1789, 4-(1,1-dimethylethyl)-4′-methoxydibenzoylmethane], in series [2], the photochemical stability entry is on record as “does not have sufficient photochemical stability”.

The values above are taken from patent US6409995B1, “Use of amino-substituted hydroxybenzophenones as photostable UV filters in cosmetic and pharmaceutical preparations” (BASF Aktiengesellschaft, priority 1999, dated 2002).
